pIC50: −log10 of the molar value.
These molecules were tested against T1, human TLR8 (Homo sapiens, UniProt Q9NR97) (assay: HEK293-Blue-hTLR-8 cells assay (SEAP reporter, R848 stimulation)). Conditions: HEK293-Blue-hTLR8 cells, R848 ligand, 20 hrs incubation.
T1 sequence (Q9NR97 27-1041): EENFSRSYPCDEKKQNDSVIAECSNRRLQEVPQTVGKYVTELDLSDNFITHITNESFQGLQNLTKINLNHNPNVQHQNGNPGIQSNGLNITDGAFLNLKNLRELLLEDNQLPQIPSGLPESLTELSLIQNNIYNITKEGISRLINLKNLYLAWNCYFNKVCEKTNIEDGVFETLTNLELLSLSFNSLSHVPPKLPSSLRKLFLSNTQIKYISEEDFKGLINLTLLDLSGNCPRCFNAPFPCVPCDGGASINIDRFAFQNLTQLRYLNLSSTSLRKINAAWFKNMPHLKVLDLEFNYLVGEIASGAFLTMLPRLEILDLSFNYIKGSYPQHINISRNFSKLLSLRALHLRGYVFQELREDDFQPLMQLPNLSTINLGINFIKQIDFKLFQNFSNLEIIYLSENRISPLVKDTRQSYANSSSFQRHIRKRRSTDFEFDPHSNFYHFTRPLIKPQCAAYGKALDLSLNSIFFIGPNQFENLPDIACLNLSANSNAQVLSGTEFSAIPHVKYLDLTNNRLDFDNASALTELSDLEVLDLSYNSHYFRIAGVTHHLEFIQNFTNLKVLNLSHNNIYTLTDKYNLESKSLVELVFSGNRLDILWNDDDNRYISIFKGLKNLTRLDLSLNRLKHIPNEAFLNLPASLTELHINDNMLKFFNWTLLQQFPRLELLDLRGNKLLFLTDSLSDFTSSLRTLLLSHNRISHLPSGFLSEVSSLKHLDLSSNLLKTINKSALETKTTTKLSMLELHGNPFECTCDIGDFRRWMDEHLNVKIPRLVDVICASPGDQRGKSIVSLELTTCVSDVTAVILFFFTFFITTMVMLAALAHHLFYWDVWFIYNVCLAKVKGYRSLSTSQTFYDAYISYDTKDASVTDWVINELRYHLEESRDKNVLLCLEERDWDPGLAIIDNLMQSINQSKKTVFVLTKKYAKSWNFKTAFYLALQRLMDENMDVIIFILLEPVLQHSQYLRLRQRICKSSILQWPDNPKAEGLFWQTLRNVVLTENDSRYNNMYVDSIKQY
Format: cell-based
Description: A stable HEK293-Blue-hTLR-8 cell line was purchased from InvivoGen (Cat. #: hkb-htlr8, San Diego, Calif., USA). These cells were originally designed for studying the stimulation of human TLR8 by monitoring the activation of NF-κB. A SEAP (secreted embryonic alkaline phosphatase) reporter gene was placed under the control of the IFN-β minimal promoter fused to five NF-κB and AP-1-binding sites. The SEAP was induced by activating NF-κB and AP-1 via stimulating HEK-Blue hTLR8 cells with TLR8 ligands. Therefore the reporter expression was declined by TLR8 antagonist under the stimulation of a ligand, such as R848, for incubation of 20 hrs. The cell culture supernatant SEAP reporter activity was determined using QUANTI-Blue™ kit (Cat. #: rep-qb1, Invivogen, San Diego, Ca, USA) at a wavelength of 640 nm, a detection medium that turns purple or blue in the presence of alkaline phosphatase.
HEK293-Blue-hTLR8 cells were incubated at a density of 250,000˜450,000 cells/mL in a volume of 170 μL in a 96-well plate in Dulbecco's Modified Eagle's medium (DMEM) containing 4.5 g/L glucose, 50 U/mL penicillin, […], […], 2 mM L-glutamine, 10% (v/v) heat-inactivated fetal bovine serum with addition of 20 μL test compound in a serial dilution in the presence of final DMSO at 1% and 10 μL of 60 uM R848 in above DMEM, perform incubation under 37° C. in a CO2 incubator for 20 hrs. Then 20 μL of the supernatant from each well was incubated with 180 μL Quanti-blue substrate solution at 37° C. for 2 hrs and the absorbance was read at 620˜655 nm using a spectrophotometer. The signalling pathway that TLR8 activation leads to downstream NF-κB activation has been widely accepted, and therefore similar reporter assay was modified for evaluating TLR8 antagonist.

How did the pIC50 turn out when C[C@@H]1CN(c2ccc(C#N)n3nccc23)C[C@H](CN2CC3(CCCNCC3)C2)O1 [Example 46, 4-[(2S,6R)-2-(2,8-diazaspiro[3.6]decan-2-ylmethyl)-6-methyl-morpholin-4-yl]pyrazolo[1,5-a]pyridine-7-carbonitrile] was run?
The pIC50 was 6.82.

With C[C@@H]1CN(c2ccc(C#N)n3nccc23)C[C@H](CN2CCC(N3CCCC3)CC2)O1 [Example 54, 4-[(2R,6S)-2-methyl-6-[(4-pyrrolidin-1-yl-1-piperidyl)methyl]morpholin-4-yl]pyrazolo[1,5-a]pyridine-7-carbonitrile] as the molecule, how does the pIC50 read?
The pIC50 was 7.38.

With C[C@@H]1CN(c2ccc(C#N)n3nccc23)C[C@H](CN2CCC[C@@H]3NCCC32)O1 (stereo partly drawn) [Example 63, 4-[(2R,6S)-2-methyl-6-[[cis-(3aS,7aS)-1,2,3,3a,5,6,7,7a-octahydropyrrolo[3,2-b]pyridin-4-yl]methyl]morpholin-4-yl]pyrazolo[1,5-a]pyridine-7-carbonitrile] as the molecule, how does the pIC50 read?
The pIC50 was 7.36.

How did the pIC50 turn out when C[C@@H]1CN(c2ccc(C#N)n3nccc23)C[C@H](CN2CCC3(CCCN3)CC2)O1 [Example 53, 4-[(2S,6R)-2-(1,8-diazaspiro[4.5]decan-8-ylmethyl)-6-methyl-morpholin-4-yl]pyrazolo[1,5-a]pyridine-7-carbonitrile] was run?
Its pIC50 is 7.54.

How did the pIC50 turn out when C[C@@H]1CN(c2ccc(C#N)n3nccc23)C[C@H](CN2CCC3(CCCCN3)C2)O1 (stereo partly drawn) [Example 42, 4-[(2S,6R)-2-(2,6-diazaspiro[4.5]decan-2-ylmethyl)-6-methyl-morpholin-4-yl]pyrazolo[1,5-a]pyridine-7-carbonitrile] was run?
The pIC50 was 7.19.

C[C@@H]1CN(c2ccc(C#N)n3nccc23)C[C@H](CN2CCC(N)C(F)(F)C2)O1 (stereo partly drawn) [Example 34, 4-[(2S,6R)-2-[(4-amino-3,3-difluoro-1-piperidyl)methyl]-6-methyl-morpholin-4-yl]pyrazolo[1,5-a]pyridine-7-carbonitrile] was tested. Which pIC50 did it give?
The pIC50 was 7.19.

How did the pIC50 turn out when C[C@@H]1CN(c2ccc(C#N)n3nccc23)C[C@H](CN2CCC23CNC3)O1 [Example 55, 4-[(2S,6R)-2-(1,6-diazaspiro[3.3]heptan-1-ylmethyl)-6-methyl-morpholin-4-yl]pyrazolo[1,5-a]pyridine-7-carbonitrile] was run?
The pIC50 was 6.06.

With C[C@@H]1CN(c2ccc(C#N)n3nccc23)C[C@H](CN2C3CCC2CC(N)C3)O1 (stereo partly drawn) [Example 37, 4-[(2S,6R)-2-[(3-amino-8-azabicyclo[3.2.1]octan-8-yl)methyl]-6-methyl-morpholin-4-yl]pyrazolo[1,5-a]pyridine-7-carbonitrile] as the molecule, how does the pIC50 read?
The pIC50 was 7.35.

How did the pIC50 turn out when C[C@@H]1CN(c2ccc(C#N)n3nccc23)C[C@H](CN2CCC3(CC2)CNCCO3)O1 [Example 60, 4-[(2R,6S)-2-methyl-6-(1-oxa-4,9-diazaspiro[5.5]undecan-9-ylmethyl)morpholin-4-yl]pyrazolo[1,5-a]pyridine-7-carbonitrile] was run?
Its pIC50 is 7.02.

How did the pIC50 turn out when C[C@@H]1CN(c2ccc(C#N)n3nccc23)C[C@H](CN2C[C@H]3CC[C@@H](N(C)C)[C@H]3C2)O1 (racemic) [Example 75, 4-[(2S,6R)-2-[[4-(dimethylamino)-3,3a,4,5,6,6a-hexahydro-1H-cyclopenta[c]pyrrol-2-yl]methyl]-6-methyl-morpholin-4-yl]pyrazolo[1,5-a]pyridine-7-carbonitrile] was run?
Its pIC50 is 6.22.

With C[C@@H]1CN(c2ccc(C#N)n3nccc23)C[C@H](CN2CCC(N)(c3ccccc3)CC2)O1 [Example 73, 4-[(2S,6R)-2-[(4-amino-4-phenyl-1-piperidyl)methyl]-6-methyl-morpholin-4-yl]pyrazolo[1,5-a]pyridine-7-carbonitrile] as the molecule, how does the pIC50 read?
Its pIC50 is 7.33.

How did the pIC50 turn out when C[C@@H]1CN(c2ccc(C#N)n3nccc23)C[C@H](CN2CCCC3NCCCC32)O1 (stereo partly drawn) [Example 64, 4-[(2S,6R)-2-(3,4,4a,5,6,7,8,8a-octahydro-2H-1,5-naphthyridin-1-ylmethyl)-6-methyl-morpholin-4-yl]pyrazolo[1,5-a]pyridine-7-carbonitrile] was run?
The pIC50 was 6.92.

With C[C@@H]1CN(c2ccc(C#N)n3nccc23)C[C@H](CN2CCN(C(=O)CN)CC2)O1 [Example 14, 4-[(2S,6R)-2-[[4-(2-aminoacetyl)piperazin-1-yl]methyl]-6-methyl-morpholin-4-yl]pyrazolo[1,5-a]pyridine-7-carbonitrile] as the molecule, how does the pIC50 read?
The pIC50 was 6.42.

With C[C@@H]1CN(c2ccc(C#N)n3nccc23)C[C@H](CN2CC[C@@H]3CNCC32)O1 (stereo partly drawn) [Example 62, 4-[(2R,6S)-2-methyl-6-[[cis-(3aR,6aR)-3,3a,4,5,6,6a-hexahydro-2H-pyrrolo[3,4-b]pyrrol-1-yl]methyl]morpholin-4-yl]pyrazolo[1,5-a]pyridine-7-carbonitrile] as the molecule, how does the pIC50 read?
The pIC50 was 6.59.

How did the pIC50 turn out when C[C@@H]1CN(c2ccc(C#N)n3nccc23)C[C@H](CNC2CCN(C)CC2)O1 [Example 7, 4-[(2R,6S)-2-methyl-6-[[(1-methyl-4-piperidyl)amino]methyl]morpholin-4-yl]pyrazolo[1,5-a]pyridine-7-carbonitrile] was run?
The pIC50 was 6.49.

How did the pIC50 turn out when C[C@@H]1CN(c2ccc(C#N)n3nccc23)C[C@H](CN2C3CCC2CNC3)O1 [Example 43, 4-[(2S,6R)-2-(3,8-diazabicyclo[3.2.1]octan-8-ylmethyl)-6-methyl-morpholin-4-yl]pyrazolo[1,5-a]pyridine-7-carbonitrile] was run?
The pIC50 was 7.51.

How did the pIC50 turn out when C[C@@H]1CN(c2ccc(C#N)n3nccc23)C[C@H](CN2CCC3(CCNC3)C2=O)O1 (stereo partly drawn) [Example 21, 4-[(2R,6R)-2-methyl-6-[(1-oxo-2,7-diazaspiro[4.4]nonan-2-yl)methyl]morpholin-4-yl]pyrazolo[1,5-a]pyridine-7-carbonitrile] was run?
The pIC50 was 7.41.

C[C@@H]1CN(c2ccc(C#N)n3nccc23)C[C@H](CN2CC3CCC(C2)N3)O1 [Example 31, 4-[(2S,6R)-2-(3,8-diazabicyclo[3.2.1]octan-3-ylmethyl)-6-methyl-morpholin-4-yl]pyrazolo[1,5-a]pyridine-7-carbonitrile] was tested. Which pIC50 did it give?
The pIC50 was 7.01.

C[C@@H]1CN(c2ccc(C#N)n3nccc23)C[C@H](CN2CCC(N3CCCCCC3)CC2)O1 [Example 4, 4-[(2S,6R)-2-[[4-(azepan-1-yl)-1-piperidyl]methyl]-6-methyl-morpholin-4-yl]pyrazolo[1,5-a]pyridine-7-carbonitrile] was tested. Which pIC50 did it give?
Its pIC50 is 7.59.

How did the pIC50 turn out when CC1CNCCN1C[C@H]1CN(c2ccc(C#N)n3nccc23)C[C@@H](C)O1 (single isomer, unassigned) [Example 50A] was run?
The pIC50 was 7.19.

C[C@@H]1CN(c2ccc(C#N)n3ncc(F)c23)C[C@H](CN2CCCC3(CCNC3)C2)O1 (stereo partly drawn) [Example 68, 3-fluoro-4-[(2S,6R)-2-(2,7-diazaspiro[4.5]decan-7-ylmethyl)-6-methyl-morpholin-4-yl]pyrazolo[1,5-a]pyridine-7-carbonitrile] was tested. Which pIC50 did it give?
Its pIC50 is 7.96.

C[C@@H]1CN(c2ccc(C#N)n3nccc23)C[C@H](CN2CC3CCNCC3C2)O1 (stereo partly drawn) [Example 49, 4-[(2S,6R)-2-(1,3,3a,4,5,6,7,7a-octahydropyrrolo[3,4-c]pyridin-2-ylmethyl)-6-methyl-morpholin-4-yl]pyrazolo[1,5-a]pyridine-7-carbonitrile] was tested. Which pIC50 did it give?
Its pIC50 is 6.82.

C[C@@H]1CN(c2ccc(C#N)n3nccc23)C[C@H](CN2CCNCC2Cc2ccccc2)O1 (stereo partly drawn) [Example 59, 4-[(2S,6R)-2-[(2-benzylpiperazin-1-yl)methyl]-6-methyl-morpholin-4-yl]pyrazolo[1,5-a]pyridine-7-carbonitrile] was tested. Which pIC50 did it give?
The pIC50 was 8.22.

Reference: patent publication US20220112187A1, “PYRAZOLOPYRIDINE AMINE COMPOUNDS FOR THE TREATMENT OF AUTOIMMUNE DISEASE” (Hoffmann-La Roche Inc., priority 2018, published 2022)
